For one cell line, relative viability results are on record in the supplement of paper PMC10307832.

Assay in all cases: relative viability (nuclei count vs DMSO), 5 days (fraction); higher = more cells survive
Compound in test [1]: CCc1c2c(nc3ccc(OC(=O)N4CCC(N5CCCCC5)CC4)cc13)-c1cc3c(c(=O)n1C2)COC(=O)[C@]3(O)CC [Irinotecan] + CC(=O)Nc1cccc(-n2c(=O)n(C3CC3)c(=O)c3c(Nc4ccc(I)cc4F)n(C)c(=O)c(C)c32)c1 [Trametinib] (partner 0.02 µM)
The procedure, abridged:
(§1)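 Lung cancer cell lines, seeded in 1536-well plates, were treated the following day by pin tool with a single drug or with five library-drug doses (not always all listed) in √10 steps on top of a fixed anchor-drug dose. Cells were fixed and nuclei stained in one step after 5 days, and nuclei were counted. Relative viability is the nuclei count for treated wells divided by that for vehicle wells, reported as medians of duplicate plates.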

Compound in test [2]: Cn1cc(-c2cnc3ccc4ccc(CS(=O)(=O)NCc5ccccn5)cc4c(=O)c3c2)cn1 [MK-8033] + CC1(C)CCC(c2ccc(Cl)cc2)=C(CN2CCN(c3ccc(C(=O)NS(=O)(=O)c4ccc(N[C@H](CCN5CCOCC5)CSc5ccccc5)c(S(=O)(=O)C(F)(F)F)c4)cc3)CC2)C1 [Navitoclax] (partner 0.5 µM)
A digest of the protocol: as §1

Compound in test [3]: Cn1cc(-c2cnc3ccc4ccc(CS(=O)(=O)NCc5ccccn5)cc4c(=O)c3c2)cn1 [MK-8033] + O=C(CCCCCCC(=O)Nc1ccccc1)NO [Vorinostat] (partner 1 µM)
The procedure, abridged: as §1

Compound in test [4]: CC[C@@H](C)CNCC(=O)N1CCC2=C([C@@H]1COC3=CC=CC(=C3)C)C=CS2 [RU-SKI 43] + C[C@]1(O)C[C@@H](c2nc(-c3ccc4ccc(-c5ccccc5)nc4c3)c3c(N)nccn32)C1 [Linsitinib] (partner 1 µM)
A digest of the protocol:
as §1

Take UMC-11: the relative viability in test [1] (first compound 0.6325 µM) was found to be 0.32; in test [1] (first compound 2 µM), 0.539; in test [1] (first compound 6.325 µM), 0.29; in test [1] (first compound 20 µM), 0.216; in test [2] (first compound 0.02 µM), 0.306; in test [2] (first compound 0.06325 µM), 0.265. The relative viability in test [2] (first compound 0.2 µM) turned out to be 0.287; in test [2] (first compound 0.6325 µM) it was 0.28; in test [2] (first compound 2 µM) it was 0.332; in test [3] (first compound 0.02 µM) it was 0.32; in test [3] (first compound 0.06325 µM) it was 0.345; in test [3] (first compound 0.2 µM), 0.46. Besides, the relative viability was determined as 0.419 in test [3] (first compound 0.6325 µM); 0.409 in test [3] (first compound 2 µM); 1.11 in test [4] (first compound 0.1 µM); 1.21 in test [4] (first compound 0.3162 µM); 1.07 in test [4] (first compound 1 µM); 1.04 in test [4] (first compound 3.162 µM). The relative viability in test [4] (first compound 10 µM) was 1.07.
